# Source: paper PMC12631437, “Evaluation of the Activity of 4‑Quinolones against Multi-Life Stages of Plasmodium spp” (ACS Omega, 2025)
# Like-named read-outs stand apart in the source and are kept apart here.
# Experiments:
# [1] = tested on: P. berghei hepatic stages; assay: Hepatic stage bioluminescence assay, Huh-7 cells infected with luciferase-expressing sporozoites; format: cell-based, Plasmodium berghei; conditions: read-out: IC50 (μM) Pb liver stages
# Description: (§1) Huh-7 cells were cultured in RPMI 1640 medium (Sigma) supplemented with 10% v/v fetal bovine serum (FBS), 1% v/v penicillin/streptomycin, 1% v/v glutamine, 1% v/v nonessential amino acids, and 10 mM HEPES, pH 7. For compound dilution, a medium containing 1:1000 gentamicin (G) and 1:300 fungizone (F) was used. Cells were seeded at 1 × 10^4 cells/well in 96-well plates and incubated at 37 °C with 5% CO2. After 24 h, compounds were diluted in RPMI+F+G, and after removal of the culture medium, added to the cells in triplicate. DMSO and atovaquone were used as negative and positive controls, respectively. Following incubation for 1 h at 37 °C, 5% CO2, the cells were infected with luciferase-expressing P. berghei sporozoites (4,000 parasites per well) freshly extracted from the salivary glands of infected mosquitoes reared at the GIMM insectarium. The viability of Huh-7 cells exposed to the compounds was assessed 46 h later by the AlamarBlue assay (Invitrogen, UK) measurement, and parasite burden was measured 48 h after sporozoite addition using a bioluminescence assay (Biotium). IC50 values were calculated using GraphPad Prism through nonlinear regression analysis of normalized dose–response curves.
# [2] = tested on: late-stage gametocytes (IV and V) of P. falciparum NF54; assay: Late-stage gametocyte bioluminescence assay, luciferase-expressing NF54; format: cell-based, Plasmodium falciparum; conditions: for Pf gametocytes inhibition: 1 μM
# Description: For the in vitro culture of sexual stages of P. falciparum NF54 Luminescent strain, the Tripathi protocol was followed.
# Parasite asexual stages were synchronized, and ring-stage parasites were incubated with a parasite-conditioned medium to induce stress and trigger gametocyte induction. After sexually committed parasites invaded new erythrocytes, N-acetylglucosamine was added to prevent further invasion and clear residual asexual parasites.
# When a predominance of late stage (IV and V) gametocytes was identified and counted together, , the MACS magnetic system was used for gametocyte enrichment, as previously described. ,
# The column content was eluted with RPMI medium into a 15 mL Falcon tube until translucent medium appeared, yielding ∼ 10 mL of eluate. The sample was centrifuged at 1500 rpm for 5 min at 37 °C, the supernatant discarded, and the pellet washed with preheated RPMI medium containing albumax. A 1 μL pellet sample was used to prepare a Giemsa-stained smear for gametocytaemia determination by counting 2000 cells. The gametocytemia for each assay were 71%, 64% and 31%. The remaining pellet was adjusted to 1 mL with RPMI medium containing 10% human serum at 37 °C. Total cell counts were performed using a Neubauer chamber with a 10X diluted sample.
# Each well contained 200,000 gametocytes in 150 μL without erythrocytes. After 48 h of incubation, a luciferase kit (Promega) was used to reveal the assay. Eighty microliters of supernatant were discarded, and the pellet was homogenized in the remaining content. Forty microliters of the sample were transferred to a clear 96-well plate containing lysis solution (1X), gently mixed, and moved to a white-bottomed 96-well plate. Luciferase (40 μL) was added, and luminescence was measured using a microplate reader with a 10-s integration time.
# [3] = tested on: Plasmodium falciparum 3D7 sensitive strain; assay: SYBR Green growth assay, asexual blood stages, 3D7 sensitive strain; format: cell-based
# Description: (§2) Parasite strains SB1-A6, 7G8, V1/S, and HB3 were acquired from BEI-MR4, while the ATQ R1 strain, carrying a V259L gene mutation, was generated in-house. […] Parasitemia was monitored using Giemsa-stained blood smears.
# (§3) Bioassays were conducted with synchronized ring-stage parasites using sorbitol synchronization. Antimalarial compounds were evaluated in 96-well plates, and parasite growth was assessed using a SYBR Green-based fluorescence assay The assays were conducted when the parasite quantity reached at least 70% of the ring stage. Compounds were initially added at specific concentrations in the first wells, followed by serial dilution (1:2) ranging from 20 μM to 0.009 μM. Subsequently, a solution containing parasites in RPMI medium at a hematocrit of 2% was added to each well, and the parasites were then incubated for 72 h.
# (§4) The IC50 values were determined using concentration–response curves generated in GraphPad 8 software. Additionally, the resistance index was calculated by comparing IC50 values obtained for the sensitive 3D7 strain with those of the resistant strains.
# P. falciparum HB3 strain = assay: SYBR Green growth assay, asexual blood stages, HB3 strain; format: cell-based, Plasmodium falciparum; conditions: Plasmodium falciparum
# Description: as §2, §3, §4
# [4] = tested on: P. falciparum V1/S strain; assay: microbe, parasite or virus in culture; format: cell-based, Plasmodium falciparum; conditions: Plasmodium falciparum, 72 h
# Description: (§5) Healthy blood samples for parasite culture were obtained from voluntary donors (approved under protocol #28176720.9.0000.0011), processed to remove white blood cells, and stored at 2 °C–8 °C for up to 15 days. Parasite strains SB1-A6, 7G8, V1/S, and HB3 were acquired from BEI-MR4, while the ATQ R1 strain, carrying a V259L gene mutation, was generated in-house. Infected erythrocytes were cultured in RPMI 1640 medium supplemented with Hepes, sodium bicarbonate, glucose, Albumax, and gentamicin, […], and incubated in a 5% CO2, 5% O2, and 90% N2 gas mixture at 37 °C with daily medium changes. Parasitemia was monitored using Giemsa-stained blood smears.
# as §3
# (§6) To assess parasite growth, the culture medium was replaced with a lysis solution (Trisbase: 49.31%, EDTA: 30.00%, Saponin: 0.16%, Triton: 0.02%) containing the fluorescent dye SYBR Green (Sigma). After a 30 min incubation, fluorescence readings were taken to determine the 50% inhibitory concentration (IC50) of parasite growth. The IC50 values were determined using concentration–response curves generated in GraphPad 8 software. Additionally, the resistance index was calculated by comparing IC50 values obtained for the sensitive 3D7 strain with those of the resistant strains.
# P. falciparum 7G8 strain = assay: SYBR Green growth assay, asexual blood stages, 7G8 strain; format: cell-based, Plasmodium falciparum; conditions: Plasmodium falciparum
# Description: as §5, §3, §6
# [5] = tested on: P. falciparum DHODH strain; assay: SYBR Green growth assay, asexual blood stages, DHODH resistant mutant; format: cell-based, Plasmodium falciparum; conditions: Plasmodium falciparum, 72 h
# Description: as §5, §3, §6
# [6] = tested on: P. falciparum hepatic stages; conditions: cited from earlier work
# [7] = tested on: P. berghei exflagellation centers; assay: Ex vivo exflagellation assay, blood of P. berghei infected mice; format: cell-based, Plasmodium berghei; conditions: 5 μM, 15 min incubation
# Description: For the ex vivo assays, a female CD1 mouse between 4 and 5 weeks of age (n = 3) was infected with P. berghei. After 4 days, when the presence of parasites (sexual phases) in the blood was observed by Giemsa-stained blood smear microscopy, the total blood from the mouse was collected into a preheated tube at 37 °C containing RPMI medium supplemented with 20% Fetal Bovine Serum (FBS) and 200 units/mL of heparin as an anticoagulant. The tube was maintained at 37 °C and centrifuged at 1500 rpm for 5 min. The supernatant was discarded, and the blood was resuspended in 20 mL of RPMI medium supplemented with 20% FBS.
# One milliliter of resuspended blood was added to each well of a 6-well plate containing 5 μM methylene blue (positive control), test compound 1 at 10 μM and 1 μM, and DMSO (negative control). After 15 min, the wells were homogenized, and 10 μL of the content was collected into an Eppendorf tube and incubated at room temperature for another 15 min. The sample was then transferred to a Neubauer chamber, and exflagellation centers were counted using an optical microscope at 40× magnification.
# [8] = tested on: P. berghei sexual phases in An. stephensi; assay: In vivo transmission-blocking assay, P. berghei infected CD1 mice, An. stephensi; design: species or system Plasmodium berghei; conditions: positive control, 25 mg/kg x 2/12h
# Description: For this assay, a colony of An. stephensi was used. The lab-reared An. stephensi was kept under controlled conditions, with a temperature of 26 °C ± 1 °C, a 12/12 h light/dark cycle, a relative humidity of 70% ± 10%, and fed a 30% sugar solution as needed.
# Female CD1 mice (4 to 6 weeks old) were infected by intraperitoneal inoculation (i.p.) containing 10 million erythrocytes infected with P. berghei expressing the GFP fluorescent protein. After 4 days, when parasites in the sexual stages were detected via Giemsa-stained blood smears, mice with similar gametocytemia and parasitemia were randomly divided into three groups of two animals each. The groups of two mices were treated orally with compound 1 at two doses of 50 mg/kg, spaced 12 h apart. […] Following the second dose, mice were anesthetized and placed in individual cages containing approximately 50 female A. stephensi mosquitoes, which had been starved for 24 h before the assay. Blood feeding lasted for 30 min, after which unfed mosquitoes were removed. Engorged females were maintained in an insectary at 21 ± 1 °C and 60% relative humidity, receiving a 30% glucose solution.
# A group of 10 mosquitoes was set aside to assess sporozoite development in salivary glands, following a protocol similar to the one described previously, with dissections performed 21 days postblood meal. Additionally, 10 μL of mouse blood was collected immediately after treatment with the compounds and incubated at room temperature for 15 min. Exflagellation was observed under optical microscopy to evaluate the effect of 4-quinolone-derived molecules on microgametocyte activity.
# Huh-7 cells = assay: Alamar Blue cell confluency (cytotoxicity) in Huh-7 cells; format: cell-based
# Description: as §1, with “For” for “Huh-7 cells were cultured in RPMI 1640 medium (Sigma) supplemented with 10% v/v fetal bovine serum (FBS), 1% v/v penicillin/streptomycin, 1% v/v glutamine, 1% v/v nonessential amino acids, and 10 mM HEPES, pH 7. For”, “DMSO and atovaquone were used as negative and positive controls, respectively.” left out
# On the first day of the assay, the compounds were diluted at 10 and 1 μM in cRPMI medium supplemented with fungizone. and gentamicin. The culture medium of Huh-7 cells was removed and replaced with compound dilutions in triplicate. As a control, a DMSO dilution mimicking the highest compound concentration used was included. The cells were incubated for 1 h at 37 °C in a 5% CO2 atmosphere.
# On the second day of the assay, compound toxicity was assessed by measuring cell confluency using the Alamar Blue/CellTiter Blue reagent. First, reagent aliquots stored at −20 °C were thawed and diluted at a 1:20 ratio in cRPMI. The culture medium was removed and replaced with 80 μL of the solution per well, followed by incubation at 37 °C and 5% CO2 for 1 h and 30 min. Fluorescence was measured using a plate reader with the Tecan i-Control software.
# [9] = tested on: P. falciparum ATQ_R1 strain; assay: SYBR Green growth assay, asexual blood stages, ATQ_R1 strain; format: cell-based, Plasmodium falciparum; conditions: Plasmodium falciparum, 72 h
# Description: as §5, §3, §6
# [10] = tested on: P. falciparum oocyst development; design: method as in PMID 12878530, PMID 17361016; conditions: studies primarily focused on P. falciparum; ref 27;28; cited from earlier work
# [11] = Plasmodium falciparum, 3D7, 72 h
# [12] = Plasmodium falciparum, 3D7, 72 h, asexual blood stages, 3D7 sensitive strain, 72 h, read-out: IC50
molecule,measurement,setting,value
2-(4-Chlorophenyl)-6-morpholinoquinolin-4(1H)-one [compound 3],IC50,"[1]; Huh-7 cells, 48 h after sporozoite addition",0.64 ± 0.04 µM
same,Pf gametocytes inhibition,[2],no activity
same,IC50,"[3]; asexual blood stages, 3D7 sensitive strain, 72 h, read-out: IC50",2900 nM
"CCN(CC)CCCC(C)Nc1ccnc2cc(Cl)ccc12 (centres unmarked) [Chloroquine, reference compound]",IC50,"P. falciparum HB3 strain; HB3, 72 h",6 ± 2 nM
same,IC50,[3]; [11],6 ± 1 nM
same,IC50,[4],0.17 ± 0.09 µM
same,IC50,"P. falciparum 7G8 strain; 7G8, 72 h",0.22 ± 0.08 µM
"Cc1cc(Nc2ccc(S(F)(F)(F)(F)F)cc2)n2nc(C(C)(F)F)nc2n1 [DSM 265, reference compound]",IC50,[5],> 10 µM
Cc1c(F)c(N2CCNC(C)C2)cc2c1c(=O)c(C(=O)O)cn2C1CC1 (centres unmarked) [Grepafloxacin],IC50 P. falciparum hepatic stages,[6],5.0 ± 0.2 µg/mL
"CN(C)c1ccc2nc3ccc(=[N+](C)C)cc-3sc2c1 [MB, Methylene blue, reference compound]",inhibition of exflagellation centers (ex vivo),[7],completely inhibited
same,inhibition at 5 µM,"[7]; Plasmodium berghei, 0.25 h",100%
same,inhibition at 5 µM,"[2]; Plasmodium falciparum, NF54, 48 h, control at 5 μM, 48 h, read-out: Pf gametocytes Inhibition (%)",100%
"COc1cc(NC(C)CCCN)c2ncccc2c1 (centres unmarked) [Primaquine, reference compound]",inhibition of P. berghei oocysts (in vivo),[8],100%
same,Confluency %,Huh-7 cells; 1 μM,109 ± 10%
same,Confluency %,Huh-7 cells; 10 μM,104.0 ± 0.2%
"CCc1nc(N)nc(N)c1-c1ccc(Cl)cc1 [Pyrimethamine, reference compound]",IC50,"P. falciparum HB3 strain; HB3 strain, 72 h, read-out: IC50",5200 ± 400 nM
same,IC50,[3]; [12],50 ± 8 nM
same,IC50,[9],> 10 µM
same,IC50,[4],6 ± 2.4 µM
same,IC50,"P. falciparum 7G8 strain; 7G8 strain, 72 h, read-out: IC50",6 ± 1 µM
"Cc1ccc(-c2cc(O)c3ccccc3n2)cc1 [compound 2, 2-p-Tolylquinolin-4(1H)-one]",IC50,"[1]; Plasmodium berghei, Huh-7 cells, 48 h after sporozoite addition",1.3 ± 0.2 µM
same,IC50,[3]; [12],11000 nM
same,Confluency %,Huh-7 cells; 1 μM,163 ± 14%
same,Confluency %,Huh-7 cells; 10 μM,104 ± 4%
"O=c1cc(-c2ccc(N3CCOCC3)cc2)[nH]c2ccccc12 [compound 4, 2-(4-Morfolinofenil)-quinolin-4(1H)-one]",Pf gametocytes inhibition,[2],no activity
same,IC50,[3]; [12],> 10000 nM
"CCCCCCCc1cc(O)c2ccccc2n1 [compound 5, 2-Heptylquinolin-4(1H)-one]",IC50,"[1]; Plasmodium berghei, Huh-7, 48 h",0.3 ± 0.01 µM
same,Pf gametocytes inhibition,[2],no activity
same,inhibition at 20 µM,"[2]; Plasmodium falciparum, NF54, 48 h, read-out: Pf gametocytes Inhibition (%)",25 ± 4%
same,IC50,[3]; [11],1000 ± 200 nM
same,Confluency %,Huh-7 cells; 1 μM,100 ± 1%
same,Confluency %,Huh-7 cells; 10 μM,147 ± 3%
CCCCN(CCCC)CCC(O)c1cc2c(Cl)cc(Cl)cc2c2cc(C(F)(F)F)ccc12 (centres unmarked) [halofantrine],concentration required to inhibit oocyst development,[10],around 10 μM
CCCCN(CCCC)CC(O)c1cc(Cl)cc2c1-c1ccc(Cl)cc1/C2=C/c1ccc(Cl)cc1 (centres unmarked) [lumefantrine],concentration required to inhibit oocyst development,[10],around 10 μM
OC(c1cc(C(F)(F)F)nc2c(C(F)(F)F)cccc12)C1CCCCN1 (centres unmarked) [mefloquine],concentration required to inhibit oocyst development,[10],around 10 μM
